Reference: PubChem BioAssay AID330 (DTP/NCI, 2004)
Where “and” joins values, the source holds several entries; their conditions need not be identical. Equal entries are not always repeated. Toxic doses and inconclusive results are not listed. How the source made its calls: active means survival T/C of 150% or more; inactive means T/C below 125% in these data.

System: P388 leukemia ip, CD2F1 mice, survival T/C
Assay: NCI In Vivo Anticancer Drug Screen. Data for tumor model P388 Leukemia (intraperitoneal) in CD2F1 (CDF1) mice
Details: endpoint: median survival time, higher = longer survival
In short: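 Mice carrying the transplanted tumor received test compound or vehicle. Survival was recorded in each group, and the value is the treated-group measurement divided by that of the vehicle-treated control group.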

[1] = dose: 100.0 mg/kg/injection, schedule: Q01DX009 (ip), vehicle: saline with Tween-80
[2] = dose: 200.0 mg/kg/injection, schedule: Q01DX009 (ip), vehicle: saline with Tween-80
[3] = dose: 400.0 mg/kg/injection, schedule: Q01DX009 (ip), vehicle: saline with Tween-80
[4] = dose: 50.0 mg/kg/injection, schedule: Q01DX009 (ip), vehicle: saline with Tween-80
[5] = dose: 50.0 mg/kg/injection, schedule: Q01DX009 (ip), vehicle: Klucel (hydroxypropylcellulose) (HPC)
[6] = dose: 100.0 mg/kg/injection, schedule: Q01DX009 (ip), vehicle: Klucel (hydroxypropylcellulose) (HPC)
[7] = dose: 200.0 mg/kg/injection, schedule: Q01DX009 (ip), vehicle: Klucel (hydroxypropylcellulose) (HPC)
[8] = dose: 12.5 mg/kg/injection, schedule: Q01DX005 (ip), vehicle: saline with Tween-80
[9] = dose: 50.0 mg/kg/injection, schedule: Q01DX005 (ip), vehicle: saline with Tween-80
[10] = dose: 200.0 mg/kg/injection, schedule: Q01DX005 (ip), vehicle: saline with Tween-80
[11] = dose: 100.0 mg/kg/injection, schedule: Q04DX003 (ip), vehicle: saline with Tween-80
[12] = dose: 200.0 mg/kg/injection, schedule: Q04DX003 (ip), vehicle: saline with Tween-80
[13] = dose: 400.0 mg/kg/injection, schedule: Q04DX003 (ip), vehicle: saline with Tween-80
[14] = dose: 12.5 mg/kg/injection, schedule: Q01DX009 (ip), vehicle: Klucel (hydroxypropylcellulose) (HPC)
[15] = dose: 50.0 mg/kg/injection, schedule: Q01DX005 (ip), vehicle: Klucel (hydroxypropylcellulose) (HPC)
[16] = dose: 100.0 mg/kg/injection, schedule: Q01DX005 (ip), vehicle: Klucel (hydroxypropylcellulose) (HPC)
[17] = dose: 25.0 mg/kg/injection, schedule: Q01DX009 (ip), vehicle: Klucel (hydroxypropylcellulose) (HPC)

Measured: T/C

COC(=O)C(O)c1ccc2c(c1)OCO2 (stereo not drawn)
inactive: [1] 90 % of control | [2] 90 % of control | [3] 104 % of control

N#Cc1sc(SCC(=O)O)c(-[n+]2ccccc2)c1N
inactive: dose: 25.0 mg/kg/injection, schedule: Q04DX002 (ip), vehicle: saline with Tween-80 95 % of control | dose: 50.0 mg/kg/injection, schedule: Q04DX002 (ip), vehicle: saline with Tween-80 104 % of control | dose: 100.0 mg/kg/injection, schedule: Q04DX002 (ip), vehicle: saline with Tween-80 99 % of control

C1=CC2C(O1)OC2c1ccc2ccccc2c1 (stereo not drawn)
inactive: dose: 7.5 mg/kg/injection, schedule: Q01DX005 (ip), vehicle: Klucel + Tween-80 114 % of control | dose: 15.0 mg/kg/injection, schedule: Q01DX005 (ip), vehicle: Klucel + Tween-80 100 % of control and 97 % of control | dose: 30.0 mg/kg/injection, schedule: Q01DX005 (ip), vehicle: Klucel + Tween-80 89 % of control | dose: 60.0 mg/kg/injection, schedule: Q01DX005 (ip), vehicle: Klucel + Tween-80 89 % of control and 97 % of control

C[Si](C)(C)n1nnn(-c2ccccc2)c1=O
inactive: [4] 99 % of control and 116 % of control | [1] 112 % of control | [2] 106 % of control

COC1=C(OC)C(=O)C(N2CCCCC2)=C(CO)C1=O
inactive: dose: 60.0 mg/kg/injection, schedule: Q01DX005 (ip), vehicle: saline + Tween-80 + alcohol 88 % of control | dose: 120.0 mg/kg/injection, schedule: Q01DX005 (ip), vehicle: saline + Tween-80 + alcohol 94 % of control | dose: 240.0 mg/kg/injection, schedule: Q01DX005 (ip), vehicle: saline + Tween-80 + alcohol 107 % of control

COC(=O)CCC(C(C)=O)C(=O)OC (stereo not drawn)
inactive: dose: 60.0 mg/kg/injection, schedule: Q01DX005 (ip), vehicle: saline 105 % of control | dose: 120.0 mg/kg/injection, schedule: Q01DX005 (ip), vehicle: saline 110 % of control | dose: 240.0 mg/kg/injection, schedule: Q01DX005 (ip), vehicle: saline 107 % of control

c1ccc(OP(Oc2ccccc2)(c2ccccc2)(c2ccccc2)c2ccccc2)cc1
inactive: [5] 97 % of control | [6] 99 % of control | [7] 111 % of control

C=CCOCC1CN2CCOC2(C)O1 (stereo not drawn)
inactive: dose: 200.0 mg/kg/injection, schedule: Q01DX009 (ip), vehicle: water 105 % of control | dose: 400.0 mg/kg/injection, schedule: Q01DX009 (ip), vehicle: water 97 % of control | dose: 800.0 mg/kg/injection, schedule: Q01DX009 (ip), vehicle: water 105 % of control | dose: 1600.0 mg/kg/injection, schedule: Q01DX009 (ip), vehicle: water 102 % of control

C=C1CCN(c2ccccc2)C1=O
inactive: dose: 4.0 mg/kg/injection, schedule: Q01DX009 (ip), vehicle: saline + alcohol 107 % of control | dose: 8.0 mg/kg/injection, schedule: Q01DX009 (ip), vehicle: saline + alcohol 92 % of control | dose: 16.0 mg/kg/injection, schedule: Q01DX009 (ip), vehicle: saline + alcohol 105 % of control | dose: 32.0 mg/kg/injection, schedule: Q01DX009 (ip), vehicle: saline + alcohol 101 % of control | dose: 64.0 mg/kg/injection, schedule: Q01DX009 (ip), vehicle: saline + alcohol 107 % of control

CCCCOC(=O)c1ccc(NC(=O)Nc2cc(C)ccc2C)cc1
inactive: [4] 96 % of control | [1] 94 % of control | [2] 91 % of control

CCCCCCCCCCCCCCCCCCCCCCCCC(O)C(=O)O (stereo not drawn) (tested in a mixture with another compound)
inactive: [8] 106 % of control | dose: 25.0 mg/kg/injection, schedule: Q01DX005 (ip), vehicle: saline with Tween-80 93 % of control | [9] 87 % of control and 89 % of control | [10] 87 % of control

COc1ccc(Oc2nc(=O)n3ccsc3n2)cc1
inactive: [11] 108 % of control | [12] 86 % of control | [13] 94 % of control

C/C(=N\NC(=S)N1CCN(c2ncccn2)CC1)c1ccccn1
inactive: dose: 6.25 mg/kg/injection, schedule: Q01DX005 (ip), vehicle: saline with Tween-80 119 % of control | [8] 119 % of control

C=CC(COC(=O)C(C)(C)OC(C)=O)c1ccc(OC(=O)C(C)C)c(OC)c1 (stereo not drawn)
inactive: [14] 94 % of control | [5] 100 % of control | [6] 102 % of control

C[N+]1(CC2CC2)C2CC(OC(=O)C(CO)c3ccccc3)CC1C1OC12 (stereo not drawn)
inactive: dose: 50.0 mg/kg/injection, schedule: Q01DX009 (ip), vehicle: saline 99 % of control | dose: 100.0 mg/kg/injection, schedule: Q01DX009 (ip), vehicle: saline 96 % of control

CC(=O)ON=C(C1CC1)C1CC1
inactive: dose: 37.5 mg/kg/injection, schedule: Q01DX009 (ip), vehicle: other 100 % of control | dose: 75.0 mg/kg/injection, schedule: Q01DX009 (ip), vehicle: other 106 % of control | dose: 150.0 mg/kg/injection, schedule: Q01DX009 (ip), vehicle: other 100 % of control | dose: 300.0 mg/kg/injection, schedule: Q01DX009 (ip), vehicle: other 110 % of control

Nc1nc(-c2ccccc2)c(CCCNc2ccc(C(=O)NC(CCC(=O)O)C(=O)O)cc2)c(=O)[nH]1 (stereo not drawn)
inactive: [15] 102 % of control | [16] 102 % of control | dose: 200.0 mg/kg/injection, schedule: Q01DX005 (ip), vehicle: Klucel (hydroxypropylcellulose) (HPC) 106 % of control

O=C(NCc1nc2ncc(Br)cc2[nH]1)c1ccccc1
inactive: dose: 100.0 mg/kg/injection, schedule: Q01DX001 (ip), vehicle: saline with Tween-80 100 % of control | dose: 200.0 mg/kg/injection, schedule: Q01DX001 (ip), vehicle: saline with Tween-80 100 % of control | dose: 400.0 mg/kg/injection, schedule: Q01DX001 (ip), vehicle: saline with Tween-80 98 % of control

O=C(Nc1ccc(Cl)c(Cl)c1)Nc1ccc(Cl)c(Cl)c1 (tested in a mixture with another compound)
inactive: dose: 3.13 mg/kg/injection, schedule: Q01DX009 (ip), vehicle: saline with Tween-80 97 % of control | dose: 6.25 mg/kg/injection, schedule: Q01DX009 (ip), vehicle: saline with Tween-80 88 % of control | dose: 12.5 mg/kg/injection, schedule: Q01DX009 (ip), vehicle: saline with Tween-80 94 % of control

CC(=NCc1ccccc1)NOCc1ccccc1
inactive: dose: 50.0 mg/kg/injection, schedule: Q01DX005 (ip), vehicle: saline 114 % of control | dose: 100.0 mg/kg/injection, schedule: Q01DX005 (ip), vehicle: saline 108 % of control | dose: 200.0 mg/kg/injection, schedule: Q01DX005 (ip), vehicle: saline 101 % of control

CCCCCCCC/C=C\CCCCCCCCSC1=CC(=O)C(OC)=C(OC)C1=O
inactive: dose: 3.13 mg/kg/injection, schedule: Q01DX009 (ip), vehicle: Klucel (hydroxypropylcellulose) (HPC) 98 % of control | dose: 6.25 mg/kg/injection, schedule: Q01DX009 (ip), vehicle: Klucel (hydroxypropylcellulose) (HPC) 96 % of control | [14] 100 % of control | [17] 103 % of control

COc1ccc(/C=N\NC(=O)C(=O)N/N=C\c2ccc(OC)c(OC)c2)cc1OC
inactive: [14] 93 % of control | [17] 93 % of control | [5] 86 % of control and 88 % of control

C/C(=N/O)C1CCC(C2CCCC(C3CCCCC3)C2)CC1 (stereo not drawn)
inactive: [9] 94 % of control | dose: 100.0 mg/kg/injection, schedule: Q01DX005 (ip), vehicle: saline with Tween-80 94 % of control | [10] 93 % of control

C/C=c1/[nH]c(=O)/c(=C\c2ccc(Cl)cc2)[nH]c1=O
inactive: [5] 91 % of control | [6] 93 % of control | [7] 94 % of control

O=C(O)/C(O)=C/c1ccccc1
inactive: dose: 25.0 mg/kg/injection, schedule: Q04DX003 (ip), vehicle: saline with Tween-80 102 % of control | [12] 111 % of control

CCNc1ccc(/C=C2\C=Cc3ccccc32)cc1
inactive: [17] 110 % of control

COc1cc([N+](=O)[O-])c(S(=O)(=O)O)cc1N=N/C(=N/Nc1cc(S(=O)(=O)O)c([N+](=O)[O-])cc1OC)C(=O)Nc1ccccc1
inactive: [15] 95 % of control | [16] 93 % of control

COC(=O)c1ccc(SSc2ccc(C(=O)OC)cc2[N+](=O)[O-])c([N+](=O)[O-])c1
inactive: [1] 91 % of control | [11] 90 % of control | [2] 100 % of control | [12] 95 % of control | [3] 91 % of control | [13] 90 % of control
